Results as given in patent US11091469B2, “Crystalline form of N-[5-(3,5-difluoro-benzyl)-1H-indazol-3-yl]-4-(4-methyl-piperazin-1-yl)-2-(tetrahydro-pyran-4-ylamino)-benzamide” (NERVIANO MEDICAL SCIENCES S.R.L., priority 2016, dated 2021).

Columns and labels:
[1] = Phase I clinical trials of entrectinib in cancer patients: pharmacokinetic measurements
From the text: (§1) A total of 18 patients across the Phase I studies met our expected Phase 2 eligibility criteria, which include the presence of NTRK1, NTRK2, NTRK3, ROS1 or ALK genetic alterations which are fusions, as opposed to other types of molecular alterations; the patient not having been previously treated with an ALK inhibitor or a ROS1 inhibitor and treatment at or above the recommended Phase II dose.

[2] = system: solid tumors with NTRK1, NTRK2, NTRK3, ROS1 or ALK genetic alterations which are fusions; experiment: Phase I clinical trials of entrectinib in cancer patients: tumor response (RECIST); type: in vivo, human
From the text: as §1

[3] = Phase I clinical trials of entrectinib in cancer patients: treatment-related adverse events, recommended Phase II dose; conditions: across the Phase I studies
[4] = Thermodynamic stability of crystalline forms; type: physicochemical; conditions: at temperature of about 40° C. or higher, vis-à-vis the three known crystalline forms (forms 1, 2, 3)

| Structure (SMILES) | pharmacokinetic measurements (exposure vs dose) ([1]; across the daily dosing regimens evaluated) | half-life ([1]; daily dosing regimens, patients) | response rate, defined as complete and partial responses by RECIST criteria ([2]; 18 patients who met the expected Phase 2 eligibility criteria across both Phase I studies, assessed by the clinical sites) [%] | additional patients remaining on study with stable disease ([2]; among the 18 patients meeting expected Phase 2 eligibility criteria) [patients] | durable responses (duration on study treatment) ([2]; nine responders remaining on study treatment) | responses in patients with NTRK1, NTRK2 or NTRK3 gene rearrangements ([2]; out of 4 patients, NSCLC, colorectal cancer, salivary gland cancer) [responses] | responses in patients with ALK gene rearrangements ([2]; out of 6 patients, two NSCLC and two other solid tumors) [responses] | responses in patients with ROS1 gene rearrangements ([2]; out of 8 patients, all NSCLC, including one complete response) [responses] | responses out of treated patients ([2]; out of 18 treated patients meeting expected Phase 2 eligibility criteria) [responses] | longest time on treatment of responders ([2]; responding patients with ROS1 gene rearrangements, NSCLC) [months] | Grade 3 treatment-related adverse event: cognitive impairment ([3]; 92 patients dosed) [patients] | Grade 3 treatment-related adverse event: diarrhea ([3]; 92 patients dosed) [patient] | Grade 3 treatment-related adverse event: fatigue ([3]; 92 patients dosed) [patients] | incidence of the most frequent treatment-related adverse events ([3]; fatigue, dysgeusia, paresthesia, nausea, myalgia) [%] | thermodynamic stability [4] |
| --- | --- | --- | --- | --- | --- | --- | --- | --- | --- | --- | --- | --- | --- | --- | --- |
| CN1CCN(c2ccc(C(=O)Nc3n[nH]c4ccc(Cc5cc(F)cc(F)c5)cc34)c(NC3CCOCC3)c2)CC1 [Entrectinib, N-[5-(3,5-Difluoro-benzyl)-1H-indazol-3-yl]-4-(4-methyl-piperazin-1-yl)-2-(tetrahydro-pyran-4-ylamino)-benzamide] | dose-proportional increases | compatible with once-daily dosing | 72 | 3 | up to 21 treatment cycles | 3 | 4 | 6 | 13 | 21 | 2 | 1 | 4 | > 10 | – |
| CN1CCN(c2ccc(C(=O)Nc3n[nH]c4ccc(Cc5cc(F)cc(F)c5)cc34)c(NC3CCOCC3)c2)CC1 [Form 4, N-[5-(3,5-difluoro-benzyl)-1H-indazol-3-yl]-4-(4-methyl-piperazin-1-yl)-2-(tetrahydro-pyran-4-ylamino)-benzamide] | – | – | – | – | – | – | – | – | – | – | – | – | – | – | greater thermodynamic stability |
